We go through twelve compounds from paper PMC4894409 (Scientific Reports, 2015).

Where a name gives a salt, the structure may show the parent alone. Read-outs that look alike come from different tables or passages of the source.

Test [1] relates to mice. The experiment in a line: FS test after AMPT, PCPA, PRAZ or WAY pretreatment (mechanism of antidepressant-like effect of D1). The settings on record: AMPT 100, PCPA 100, PRAZ 1 or WAY 0.3 mg/kg i.p. + Vehicle versus SAL + Vehicle, p > 0.05. Format: in vivo, Male Swiss mice. How it is done:
Mice were pretreated (i.p) with saline solution or AMPT 100 mg/kg (catecholamine depletor) 4 h prior to the oral administration of vehicle 10 mL/kg or D1 5 mg/kg. […] In a separate experiment, pretreatment (i.p) of mice with saline solution or PCPA 100 mg/kg (serotonin depletor) for four consecutive days prior to oral administration of vehicle or D1 5 mg/kg was used to investigate effect of serotonin depletion on antidepressant-like activity of this OAD. […] In all the four experiments, oral administration of vehicle or D1 5 mg/kg was followed by FS test (60 min interval between p.o. treatment and behavioural testing).

For test [2], the system named is dopamine, noradrenaline and serotonin levels. Conditions: cited from earlier work.
For test [3], the target named is T1, 5-HT1A receptor (Mus musculus, UniProt Q64264).
T1 construct: The hippocampi of mice were dissected and homogenized in 5 volumes of ice-cold buffer; from tissue; host or cells: mouse hippocampus membranes
T1 sequence (Q64264 1-421): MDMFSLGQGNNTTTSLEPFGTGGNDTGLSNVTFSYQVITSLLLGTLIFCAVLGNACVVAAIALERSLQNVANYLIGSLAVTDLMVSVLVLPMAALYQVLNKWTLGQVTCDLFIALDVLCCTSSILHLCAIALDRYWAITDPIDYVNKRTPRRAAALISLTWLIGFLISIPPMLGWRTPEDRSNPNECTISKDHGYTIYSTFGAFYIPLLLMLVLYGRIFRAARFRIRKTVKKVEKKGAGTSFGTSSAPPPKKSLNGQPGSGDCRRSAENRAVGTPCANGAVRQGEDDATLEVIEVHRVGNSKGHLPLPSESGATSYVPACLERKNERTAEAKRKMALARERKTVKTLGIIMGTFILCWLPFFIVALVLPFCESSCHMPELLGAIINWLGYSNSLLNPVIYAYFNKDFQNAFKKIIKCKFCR
Put plainly: [35S]GTPγS binding to mice hippocampal membranes. The settings on record: for Emax: read-out: Intrinsic activity (Emax ± SEM in %). The format is biochemical. Here is the method:
The hippocampi of mice were dissected and homogenized in 5 volumes of ice-cold buffer (25 mM Tris-HCl, 0.5 mM dithiothreitol, and 0.5 mM EGTA, pH 7.4). The homogenate was centrifuged (1,000 × g for 5 min at 4 °C) and the resultant supernatant was removed. The remaining pellet was resuspended in buffer, homogenized, and centrifuged. The two supernatants obtained were combined and centrifuged at […] at 4 °C and the pellets were resuspended in membrane preparation buffer. The volumes were adjusted prior to the determination of protein concentration by Bradford method[56] and stored at −80 °C until required. […] The reactions were initiated by the addition of 25 μl [^35S]-GTPγS, followed by a 20 min incubation at 20 °C. The reactions were terminated by rapid filtration. The filters were placed in liquid scintillation cocktail in counting vials. The liquid scintillation spectroscopy was used to measure the radioactivity bound to the filter paper after 10 hour.

In test [4] the test system is mice. The experiment in a line: Forced swimming (FS) test. Format: in vivo, Male Swiss mice. How it is done: (§1) Male Swiss mice (weighing between 25–30 g; 6–8 weeks old), provided by Central Animal House of the Federal University of Goiás, were used in all behavioural models. The experimental animals were kept in an intra-laboratory facility cage (32 × 18 × 16 cm) under controlled environmental conditions (23 ± 1 °C, 12 hr light-dark cycle) with access to food and water ad libitum. The experimental protocols (number 104/08) were approved by Ethical Committee of Federal University of Goiás in accordance to the international laws on the care and use of laboratory animals.
In the FS model, mice were randomly divided into 5 groups [control (vehicle), 3 different doses of OAD and IMI]. Mice were exposed to a modified version of FS test[48] after oral administration of vehicle, OAD (5, 10 or 20 mg/kg) or IMI 15 mg/kg. FS apparatus is a cylindrical water container (42 cm in height, 18 cm in diameter) filled with water up to 30 cm (total volume ( [drawing 1] of 7635.06 cm^3 at 24 ± 2 °C). In this model, the initial escape-directed behaviour like swimming and climbing by mouse are generally followed with a relatively passive and immobile posture. The container was cleaned with 10% ethanol solution prior to the exposure of naïve mouse. This test session (6-min duration) was videotaped and the swimming and immobility time was later scored and analyzed.

The test system of test [5] is mice. The experiment in a line: Open field (OF) test. The format is in vivo, Male Swiss mice. The settings on record: for other parameters of the OF test: 5, 10, 20 mg/kg p.o., parameters not named as changed, p > 0.05. Here is the method: as §1
In the OF, animals were randomly divided into six groups [control (vehicle), 3 different doses of OAD, DZP 1 or 5 mg/kg]. Animals were treated with vehicle, OAD (5, 10 or 20 mg/kg, p.o), DZP (1 or 5 mg/kg, p.o) as described in our previous work[7][49], and placed in a circular open field [base area ( [drawing 2] ) = 62.80 cm^2 which is divided into 8 equal sectors enclosed in a 50 cm high wooden wall]. The test session (5-min duration) was videotaped in a sound-proof experimental room. Parameters like total crossing, freezing time, number of grooming and rearing activity, crossing at the centre and time spent at the centre of the open field were observed and scored.

The conditions of test [6]: previous study; cited from earlier work.
The mark [7] stands for this setting: 100 mg/kg i.p. for four consecutive days.
Setting [8] is: 20 mg/kg p.o., vs vehicle, p < 0.05.

With `N[C@@H](Cc1ccc(Cl)cc1)C(=O)O` (racemic) [PCPA, p-chlorophenylalanine], the “animal behaviour (swimming time) after pretreatment prior to vehicle” value (from here on “animal behaviour (swimming time)”) in test [1] is “did not alter animal behaviour”. In test [2] (setting [7]), the “depletion of endogenous serotonin content” value is recorded as “about 60%” and the “noradrenaline or dopamine levels” value was “without altering”.

As usually defined, the Emax is the greatest response seen or fitted, relative to the assay's reference. With `CCCN(CCC)C1CCc2cccc(O)c2C1` (single isomer, unassigned; (+)) [(+) 8-OH-DPAT, 8-OH-DPAT], in test [3], the EC50 was 158 nM and the maximum response (Emax) was 94 ± 2%.

Consider `CC(N)(Cc1ccc(O)cc1)C(=O)O` (stereo not drawn) [AMPT, α-methyl-p-tyrosine], for which, in test [1], the “animal behaviour (swimming time)” value is on record as “did not alter animal behaviour”. Besides, in test [2] (mice), the levels of serotonin entry is “without affecting” and the “reduction of noradrenaline levels” value was 53%. The “reduction of dopamine levels” value in test [2] (mice, tyrosine hydroxylase inhibitor) is reported as 57%.

For the compound `O=C1CC2(CCCC2)CC(=O)N1CCCCN1CCN(c2ncccn2)CC1` [Buspirone, buspirone], the EC50 in test [3] (mice hippocampal membranes, read-out: Agonist potency (pEC50 ± SEM) (converted)) was 251 nM. For the same compound, the maximal response (Emax) in test [3] (percentage of that produced by 10 μM (+)8-OH-DPAT) came to 33 ± 1%.

As for `C=C(C)C(=O)O[C@H]1CC[C@]2(C)[C@H]3CC=C4[C@@H]5CC(C)(C)CC[C@]5(C(=O)O)CC[C@@]4(C)[C@]3(C)CC[C@H]2C1(C)C` [D2, Oleanolic acid methacrylate], in test [4] (setting [8]), the “immobility time in the FS test” value is given as “reduction” and the “swimming time in the FS test” value is reported as “significant increase”. In addition, the “total crossing in the OF” value in test [5] (20 mg/kg p.o., vs vehicle) is “increase”. Moreover, in test [5], the “other parameters of the OF test” value was “not altered”. For the same compound, in test [5] (5, 10 and 20 mg/kg p.o., vs vehicle), the “time spent at the centre of the OF” value is “increase”. Besides, the “crossing at the centre of the OF” value in test [5] (10 and 20 mg/kg p.o., vs vehicle) is recorded as “increase”.

For `COC(=O)/C=C/C(=O)O[C@H]1CC[C@]2(C)[C@H]3CC=C4[C@@H]5CC(C)(C)CC[C@]5(C(=O)O)CC[C@@]4(C)[C@]3(C)CC[C@H]2C1(C)C` [D3, Oleanolic acid methyl fumarate], in test [4] (5, 10, 20 mg/kg p.o., ANOVA), the “immobility time in the FS test” value is given as “did not elicit significant effect” and the “swimming time in the FS test” value is recorded as “did not elicit significant effect”. Moreover, the “number of grooming in the OF” value in test [5] (10 mg/kg p.o., vs vehicle) is “reduction”. Moreover, in test [5] (20 mg/kg p.o., vs vehicle), the “freezing time in the OF” value is reported as “increase” and the “time spent at the centre of the OF” value is “increase”. For the same compound, the “other parameters of the OF test” value in test [5] is “not altered”.

Consider `CN1C(=O)CN=C(c2ccccc2)c2cc(Cl)ccc21` [DZP, Diazepam, reference compound], for which the “effect in the OF test” value in test [5] (1 mg/kg p.o.) is reported as “anxiolytic”; in test [5] (5 mg/kg p.o.), “sedative like effect”.

As for `CN(C)CCCN1c2ccccc2CCc2ccccc21` [IMI, imipramine, reference compound], in test [4] (15 mg/kg p.o.), the “effect in FS test” value is on record as “antidepressant-like effect”.

Take `CC1(C)CC[C@]2(C(=O)O)CC[C@]3(C)C(=CC[C@@H]4[C@@]5(C)CC[C@H](O)C(C)(C)[C@@H]5CC[C@]43C)[C@@H]2C1` [OA, Oleanolic acid]: in test [6], the “dependence of antidepressant-like effect on MAO activity” value is “independent of MAO activity”; the “effect of PCPA, AMPT, NAN, PRAZ and WAY100635 on antidepressant-like effect” value is recorded as “blockade”.

Turning to `COc1cc2nc(N3CCN(C(=O)c4ccco4)CC3)nc(N)c2cc1OC` [PRAZ, prazosin, reference compound], the “animal behaviour (swimming time)” value in test [1] is on record as “did not alter animal behaviour”.

For the compound `COc1ccccc1N1CCN(CCN(C(=O)C2CCCCC2)c2ccccn2)CC1` [WAY, N-{2-[4-(2-methoxyphenyl)-1-piperazinyl]ethyl}-N-2-pyridinylcyclohexane carboxamide, reference compound], the “animal behaviour (swimming time)” value in test [1] is reported as “did not alter animal behaviour”.

For Oleanolic acid ethyl fumarate [D4], the “swimming time in the FS test” value in test [4] (setting [8]) is on record as “significant reduction”. The “immobility time in the FS test” value in test [4] (5, 10, 20 mg/kg p.o., ANOVA) was “without changes”. Besides, in test [5] (20 mg/kg p.o., vs vehicle), the “freezing time in the OF” value is recorded as “increase” and the “total crossing in the OF” value is listed as “reduction”.
